Measured values reported in publication PMC6977461 (Chemical Science, 2019).
Where two headings read alike, the source gives them in different places.

What was measured:
[1] = mouse plasma degradation assay (Methods MP1-MP3); format: in vitro ADME
Description: The oligomer was then diluted 1/50 with a solution of plasma/PBS pH 7.4 (1/1) to afford a final concentration of 5μM and incubated at 37°C. […] (t = 0 min was determined using the reaction without plasma). The samples were frozen at -80°C before analysis. […] The supernatant was analyzed by LC-MS. The time course of oligomer degradation was determined by integrating the area of the peak in the extracted ion chromatogram. […] The oligomer was then diluted 1/50 with a solution of plasma/PBS pH 7.4 (1/1) to afford a final concentration of 5μM and incubated at 37°C. […] The oligomer was then diluted 1/50 with a solution of plasma/PBS pH 7.4 (1/1) to afford a final concentration of 5μM and incubated at 37°C. […] Animals. […] A standard chow diet (RM1 (E) 801492, SDS) and tap water were provided ad libitum. All animal protocols done by Physiogenex S.A.S were reviewed and approved by the local (Comité […] national ([…]

GLP-1R = GLP-1R (Homo sapiens, UniProt P43220); experiment: cAMP production functional assay in HEK293 cells transfected with GLP-1R (Method C1); format: cell-based; parameters: host or cells: HEK-293T; details: for EC50: HEK-293T cells exogenously expressing human GLP-1R, cAMP by HTRF, 10 min at 37 °C, Method C1, mean, n = 3 (2: n = 6), read-out: EC50 (GLP-1R potency); for Potency (%), percentage of potency compared to GLP-1-NH2: from EC50 in HEK293 GLP-1R cAMP assay
Description: (§1)  HEK-293T cells (Multispan inc., lot#.DC1267-062017) were suspended in cell culture media
(§2) (DMEM 1X + GlutaMAX (Gibco 31966-021)) complemented with FBS 10% (Sigma Aldrich
(§3)  βTC6 cells were suspended in HBSS buffer (Invitrogen) complemented with 20 mM HEPES (pH
(§4) In vitro pharmacology on HEK-293T cells (EC50: Method C1)
(§5) cells (Multispan inc., lot#.DC1267-062017) was determined by measuring their effects on cAMP
(§6) production using the HTRF detection method (performed by UREkA SARL). The cells were distributed
(§7) in 384-well microplates at a density of 1.0x10^4 cells/well. Stock solutions of the test compounds or the
(§8) reference agonist were prepared at a concentration of 1 mM in DMSO. Then, compounds to be tested
(§9) were diluted in cell culture media and transferred to the plate containing the cells to reach final assay

mouse GLP-1 receptor = target: T1, mouse GLP-1 receptor (Mus musculus, UniProt O35659); experiment: cAMP production in βTC6 cells expressing GLP-1R endogenously (Method C2); format: cell-based; details: for loss in potency relative to 3 (fold): figures for 6-8 match the βTC6 EC50 values of Table S1; for Potency (%), Table S1: from EC50 in βTC6 cAMP assay, footnote: compare to GLP-1-NH2 (2); for EC50: read-out: EC50 (GLP-1R potency), Table S1
T1 construct: βTC6 cells which express GLP-1R endogenously; host or cells: βTC6 cells
T1 sequence (O35659 22-463): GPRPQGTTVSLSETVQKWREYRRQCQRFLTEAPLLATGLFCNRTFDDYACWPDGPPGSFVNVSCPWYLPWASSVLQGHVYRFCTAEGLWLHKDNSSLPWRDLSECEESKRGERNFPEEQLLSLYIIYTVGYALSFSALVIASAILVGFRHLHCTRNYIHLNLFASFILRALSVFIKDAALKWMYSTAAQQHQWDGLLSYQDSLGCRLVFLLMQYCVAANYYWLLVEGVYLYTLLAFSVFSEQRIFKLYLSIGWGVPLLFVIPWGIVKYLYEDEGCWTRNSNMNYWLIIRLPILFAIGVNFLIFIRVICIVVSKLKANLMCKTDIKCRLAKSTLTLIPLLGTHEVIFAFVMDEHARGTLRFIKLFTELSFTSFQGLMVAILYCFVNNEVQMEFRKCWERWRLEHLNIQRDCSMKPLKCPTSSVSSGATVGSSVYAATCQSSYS
Description: as §1, §2, §3, §4, §5, §6, §7, §8, §9

[2] = mouse plasma diluted 1/1 with PBS, mouse plasma/PBS pH 7.4 (1/1), 5 µM, 37 °C, acetonitrile quench, LC-MS extracted ion chromatogram, MP1 for 2-8, MP2 for 9-11, MP3 for 12-14, mean, n = 3, read-out: Mouse plasma t1/2 (converted)

Sequence of GLP-1R (P43220 24-463): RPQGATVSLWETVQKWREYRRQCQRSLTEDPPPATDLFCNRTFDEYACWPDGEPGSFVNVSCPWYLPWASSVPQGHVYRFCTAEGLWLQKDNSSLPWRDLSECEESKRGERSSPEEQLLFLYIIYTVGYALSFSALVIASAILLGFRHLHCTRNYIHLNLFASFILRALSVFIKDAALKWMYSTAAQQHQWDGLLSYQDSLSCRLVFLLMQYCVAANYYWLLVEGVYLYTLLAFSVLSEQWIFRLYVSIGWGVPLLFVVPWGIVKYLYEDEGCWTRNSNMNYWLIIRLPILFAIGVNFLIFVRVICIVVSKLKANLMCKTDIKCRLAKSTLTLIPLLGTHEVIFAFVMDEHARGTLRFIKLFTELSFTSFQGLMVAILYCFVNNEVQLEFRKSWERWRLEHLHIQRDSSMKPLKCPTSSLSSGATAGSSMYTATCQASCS

Row | Structure (SMILES) | half-life at 5 µM [1, 2] [min] | EC50 (GLP-1R) [nM] | Potency (%), percentage of potency compared to GLP-1-NH2 (GLP-1R) [%] | loss in potency relative to 3 (fold) (mouse GLP-1 receptor) | Potency (%), Table S1 (mouse GLP-1 receptor) [%] | EC50 (mouse GLP-1 receptor) [nM] | half-life at 5 µM ([1]; mouse, plasma, pH 7.4) [min]
1 | CC[C@H](C)[C@H](NC(=O)[C@H](Cc1ccccc1)NC(=O)[C@H](CCC(=O)O)NC(=O)[C@H](CCCCN)NC(=O)[C@H](C)NC(=O)[C@H](C)NC(=O)[C@H](CCC(N)=O)NC(=O)CNC(=O)[C@H](CCC(=O)O)NC(=O)[C@H](CC(C)C)NC(=O)[C@H](Cc1ccc(O)cc1)NC(=O)[C@H](CO)NC(=O)[C@H](CO)NC(=O)[C@@H](NC(=O)[C@H](CC(=O)O)NC(=O)[C@H](CO)NC(=O)[C@@H](NC(=O)[C@H](Cc1ccccc1)NC(=O)[C@@H](NC(=O)CNC(=O)[C@H](CCC(=O)O)NC(=O)NC(C)CNC(=O)[C@@H](N)Cc1c[nH]cn1)[C@@H](C)O)[C@@H](C)O)C(C)C)C(=O)N[C@@H](C)C(=O)N[C@@H](Cc1c[nH]c2ccccc12)C(=O)N[C@@H](CC(C)C)C(=O)N[C@H](C(=O)N[C@@H](CCCCN)C(=O)NCC(=O)N[C@@H](CCCNC(=N)N)C(=O)NCC(N)=O)C(C)C (stereo partly shown) [compound 6] | 22.2 | 0.012 | 25 | 24 | 3 | 3.4 | 
2 | CC[C@H](C)[C@H](NC(=O)[C@H](Cc1ccccc1)NC(=O)[C@H](CCC(=O)O)NC(=O)[C@H](CCCCN)NC(=O)[C@H](C)NC(=O)[C@H](C)NC(=O)[C@H](CCC(N)=O)NC(=O)CNC(=O)[C@H](CCC(=O)O)NC(=O)[C@H](CC(C)C)NC(=O)[C@H](Cc1ccc(O)cc1)NC(=O)[C@H](CO)NC(=O)[C@H](CO)NC(=O)[C@@H](NC(=O)[C@H](CC(=O)O)NC(=O)[C@H](CO)NC(=O)[C@@H](NC(=O)[C@H](Cc1ccccc1)NC(=O)[C@@H](NC(=O)CNC(=O)[C@H](CCC(=O)O)NC(=O)NC[C@@H](NC(=O)[C@@H](N)Cc1c[nH]cn1)C(C)C)[C@@H](C)O)[C@@H](C)O)C(C)C)C(=O)N[C@@H](C)C(=O)N[C@@H](Cc1c[nH]c2ccccc12)C(=O)N[C@@H](CC(C)C)C(=O)N[C@H](C(=O)N[C@@H](CCCCN)C(=O)NCC(=O)N[C@@H](CCCNC(=N)N)C(=O)NCC(N)=O)C(C)C [compound 8] | 18 | 2.12 |  | > 1000 | < 0.01 | > 10000 | 
3 | CC[C@H](C)[C@H](NC(=O)[C@H](Cc1ccccc1)NC(=O)[C@H](CCC(=O)O)NC(=O)[C@H](CCCCN)NC(=O)[C@H](C)NC(=O)[C@H](C)NC(=O)[C@H](CCC(N)=O)NC(=O)CNC(=O)[C@H](CCC(=O)O)NC(=O)[C@H](CC(C)C)NC(=O)[C@H](Cc1ccc(O)cc1)NC(=O)[C@H](CO)NC(=O)[C@H](CO)NC(=O)[C@@H](NC(=O)[C@H](CC(=O)O)NC(=O)[C@H](CO)NC(=O)[C@@H](NC(=O)[C@H](Cc1ccccc1)NC(=O)[C@@H](NC(=O)CNC(=O)[C@H](CCC(=O)O)NC(=O)OC[C@H](C)NC(=O)[C@@H](N)Cc1c[nH]cn1)[C@@H](C)O)[C@@H](C)O)C(C)C)C(=O)N[C@@H](C)C(=O)N[C@@H](Cc1c[nH]c2ccccc12)C(=O)N[C@@H](CC(C)C)C(=O)N[C@H](C(=O)N[C@@H](CCCCN)C(=O)NCC(=O)N[C@@H](CCCNC(=N)N)C(=O)NCC(N)=O)C(C)C [compound 5] | 12.6 |  |  |  | 13 | 0.8 | 
4 | CC[C@H](C)[C@H](NC(=O)[C@H](Cc1ccccc1)NC(=O)[C@H](CCC(=O)O)NC(=O)[C@H](CCCCN)NC(=O)[C@H](C)NC(=O)[C@H](C)NC(=O)[C@H](CCC(N)=O)NC(=O)CNC(=O)[C@H](CCC(=O)O)NC(=O)[C@H](CC(C)C)NC(=O)[C@H](Cc1ccc(O)cc1)NC(=O)[C@H](CO)NC(=O)[C@H](CO)NC(=O)[C@@H](NC(=O)[C@H](CC(=O)O)NC(=O)[C@H](CO)NC(=O)[C@@H](NC(=O)[C@H](Cc1ccccc1)NC(=O)[C@@H](NC(=O)CNC(=O)[C@H](CCC(=O)O)NC(=O)NCCNC(=O)[C@@H](N)Cc1c[nH]cn1)[C@@H](C)O)[C@@H](C)O)C(C)C)C(=O)N[C@@H](C)C(=O)N[C@@H](Cc1c[nH]c2ccccc12)C(=O)N[C@@H](CC(C)C)C(=O)N[C@H](C(=O)N[C@@H](CCCCN)C(=O)NCC(=O)N[C@@H](CCCNC(=N)N)C(=O)NCC(N)=O)C(C)C [compound 7] | 13.2 | 0.0053 | 59 | 5 | 13 | 0.8 | 
5 | CC[C@H](C)[C@H](NC(=O)[C@H](Cc1ccccc1)NC(=O)[C@H](CCC(=O)O)NC(=O)[C@H](CCCCN)NC(=O)[C@H](C)NC(=O)[C@H](C)NC(=O)[C@H](CCC(N)=O)NC(=O)CNC(=O)[C@H](CCC(=O)O)NC(=O)[C@H](CC(C)C)NC(=O)[C@H](Cc1ccc(O)cc1)NC(=O)[C@H](CO)NC(=O)[C@H](CO)NC(=O)[C@@H](NC(=O)[C@H](CC(=O)O)NC(=O)[C@H](CO)NC(=O)[C@@H](NC(=O)[C@H](Cc1ccccc1)NC(=O)[C@@H](NC(=O)CNC(=O)[C@H](CCC(=O)O)NC(=O)[C@H](C)NC(=O)[C@@H](N)Cc1cnc[nH]1)[C@@H](C)O)[C@@H](C)O)C(C)C)C(=O)N[C@@H](C)C(=O)N[C@@H](Cc1c[nH]c2ccccc12)C(=O)N[C@@H](CC(C)C)C(=O)N[C@H](C(=O)N[C@@H](CCCCN)C(=O)NCC(=O)N[C@@H](CCCNC(=N)N)C(=O)NCC(N)=O)C(C)C [compound 2, GLP-1-NH2, reference compound] |  |  |  |  |  |  | 8.4
6 | CC[C@H](C)[C@H](NC(=O)[C@H](Cc1ccccc1)NC(=O)[C@H](CCC(=O)O)NC(=O)[C@H](CCCCN)NC(=O)[C@H](C)NC(=O)[C@H](C)NC(=O)[C@H](CCC(N)=O)NC(=O)CNC(=O)[C@H](CCC(=O)O)NC(=O)[C@H](CC(C)C)NC(=O)[C@H](Cc1ccc(O)cc1)NC(=O)[C@H](CO)NC(=O)[C@H](CO)NC(=O)[C@@H](NC(=O)[C@H](CC(=O)O)NC(=O)[C@H](CO)NC(=O)[C@@H](NC(=O)[C@H](Cc1ccccc1)NC(=O)[C@@H](NC(=O)CNC(=O)[C@H](CCC(=O)O)NC(=O)CC[C@H](C)NC(=O)[C@@H](N)Cc1c[nH]cn1)[C@@H](C)O)[C@@H](C)O)C(C)C)C(=O)N[C@@H](C)C(=O)N[C@@H](Cc1c[nH]c2ccccc12)C(=O)N[C@@H](CC(C)C)C(=O)N[C@H](C(=O)N[C@@H](CCCCN)C(=O)NCC(=O)N[C@@H](CCCNC(=N)N)C(=O)NCC(N)=O)C(C)C [compound 4] | 13.8 |  |  |  |  |  | 

Now from value to molecule:

Row | half-life at 5 µM [1, 2] [min] | EC50 (GLP-1R) [nM] | Potency (%), percentage of potency compared to GLP-1-NH2 (GLP-1R) [%] | loss in potency relative to 3 (fold) (mouse GLP-1 receptor) | Potency (%), Table S1 (mouse GLP-1 receptor) [%] | EC50 (mouse GLP-1 receptor) [nM] | half-life at 5 µM ([1]; mouse, plasma, pH 7.4) [min] | Structure (SMILES)
7 |  |  |  |  | 8 |  |  | CC[C@H](C)[C@H](NC(=O)[C@H](Cc1ccccc1)NC(=O)[C@H](CCC(=O)O)NC(=O)[C@H](CCCCN)NC(=O)[C@H](C)NC(=O)[C@H](C)NC(=O)[C@H](CCC(N)=O)NC(=O)CNC(=O)[C@H](CCC(=O)O)NC(=O)[C@H](CC(C)C)NC(=O)[C@H](Cc1ccc(O)cc1)NC(=O)[C@H](CO)NC(=O)[C@H](CO)NC(=O)[C@@H](NC(=O)[C@H](CC(=O)O)NC(=O)[C@H](CO)NC(=O)[C@@H](NC(=O)[C@H](Cc1ccccc1)NC(=O)[C@@H](NC(=O)CNC(=O)[C@H](CCC(=O)O)NC(=O)NC[C@H](CO)NC(=O)[C@@H](N)Cc1c[nH]cn1)[C@@H](C)O)[C@@H](C)O)C(C)C)C(=O)N[C@@H](C)C(=O)N[C@@H](Cc1c[nH]c2ccccc12)C(=O)N[C@@H](CC(C)C)C(=O)N[C@H](C(=O)N[C@@H](CCCCN)C(=O)NCC(=O)N[C@@H](CCCNC(=N)N)C(=O)NCC(N)=O)C(C)C [S1]
8 |  |  |  |  | < 0.01 | > 10000 |  | CC[C@H](C)[C@H](NC(=O)[C@H](Cc1ccccc1)NC(=O)[C@H](CCC(=O)O)NC(=O)[C@H](CCCCN)NC(=O)[C@H](C)NC(=O)[C@H](C)NC(=O)[C@H](CCC(N)=O)NC(=O)CNC(=O)[C@H](CCC(=O)O)NC(=O)[C@H](CC(C)C)NC(=O)[C@H](Cc1ccc(O)cc1)NC(=O)[C@H](CO)NC(=O)[C@H](CO)NC(=O)[C@@H](NC(=O)[C@H](CC(=O)O)NC(=O)[C@H](CO)NC(=O)[C@@H](NC(=O)[C@H](Cc1ccccc1)NC(=O)[C@@H](NC(=O)CNC(=O)[C@H](CCC(=O)O)NC(=O)NC[C@H](CCCNC(=N)N)NC(=O)[C@@H](N)Cc1c[nH]cn1)[C@@H](C)O)[C@@H](C)O)C(C)C)C(=O)N[C@@H](C)C(=O)N[C@@H](Cc1c[nH]c2ccccc12)C(=O)N[C@@H](CC(C)C)C(=O)N[C@H](C(=O)N[C@@H](CCCCN)C(=O)NCC(=O)N[C@@H](CCCNC(=N)N)C(=O)NCC(N)=O)C(C)C [S2]
